Laboratory results from publication PMC8936486 (PLoS Biology, 2022).

Key:
SaFtsZf [1] = target: T1, SaFtsZf (Staphylococcus aureus, UniProt P0A029); test: light scattering of polymer assembly; type: biochemical; conditions: 10 mM MgCl2, pH 6.5, 25 °C
T1 construct: gene ftsZ
T1 sequence (P0A029 1-390): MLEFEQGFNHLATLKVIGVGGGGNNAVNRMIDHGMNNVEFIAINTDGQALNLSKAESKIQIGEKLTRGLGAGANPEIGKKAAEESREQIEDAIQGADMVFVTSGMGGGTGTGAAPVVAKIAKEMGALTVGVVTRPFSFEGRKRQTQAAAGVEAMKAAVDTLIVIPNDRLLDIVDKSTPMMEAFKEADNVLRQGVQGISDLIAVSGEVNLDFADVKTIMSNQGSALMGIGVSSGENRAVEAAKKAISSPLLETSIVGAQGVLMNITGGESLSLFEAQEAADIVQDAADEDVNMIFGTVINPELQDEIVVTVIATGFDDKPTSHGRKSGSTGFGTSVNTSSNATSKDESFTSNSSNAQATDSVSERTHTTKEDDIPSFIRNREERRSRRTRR

MjFtsZ = target: T2, MjFtsZ (Methanocaldococcus jannaschii, UniProt Q57816); test: light scattering of polymer assembly; type: biochemical; conditions: 5 mM BeF3- with GTP, 55 °C; stabilizes polymers, repolymerization after disassembly
T2 construct: gene ftsZ1; full-length, nucleotide-devoid (apo)

SaFtsZf [2] = target: T1, SaFtsZf; test: electron microscopy of polymers; type: biochemical; conditions: MES assembly buffer, 25 °C
[3] = target: the molecule itself; test: right angle light scattering; self-assembly of full-length FtsZ with 1 mM GTP and MgCl2 in MES assembly buffer; SaFtsZf 49 uM and EcFtsZ 25 uM at 25 C, apo-MjFtsZ 15 uM at 55 C; SaFtsZf polymers also seen by electron microscopy

## [F][Be-]([F])[F] [BeF3^−]
SaFtsZf [1]; 1-5 mM BeF3- with 1 mM GTP, stabilizes polymers
  light scattering of polymer assembly: Assembly of full-length SaFtsZ is stabilized by BeF3^−
MjFtsZ
  light scattering of polymer assembly: Repolymerization with BeF3^− after disassembly was observed for MjFtsZ

## Nc1nc2c(ncn2[C@@H]2O[C@H](COP(=O)(O)CP(=O)(O)OP(=O)(O)O)[C@@H](O)[C@H]2O)c(=O)[nH]1 [GMPCPP, guanosine-5′-[(α,β)-methyleno]triphosphate]
SaFtsZf [2]
  electron microscopy of polymers: Polymers formed with GMPCPP

## Nc1nc2c(ncn2[C@@H]2O[C@H](COP(=O)(O)OP(=O)(O)OP(=O)(O)O)[C@@H](O)[C@H]2O)c(=O)[nH]1 [GTP]
SaFtsZf [1]; 1 mM GTP
  light scattering of polymer assembly: The sample with GTP depolymerized upon nucleotide consumption (blue line)

B1: full-length FtsZ from S. aureus (natural protein, Staphylococcus aureus Mu50/ATCC 700699, UniProt P0A029 1-390, looked up)
chain: T1 sequence (P0A029 1-390)
notes: full-length FtsZ from methicillin-resistant S. aureus Mu50/ATCC 700699; also called SaFtsZf; full-length SaFtsZ
[3]
  binding result: binds

B2: full-length FtsZ from E. coli (natural protein, Escherichia coli, UniProt P0A9A6 1-383, looked up)
chain: MFEPMELTNDAVIKVIGVGGGGGNAVEHMVRERIEGVEFFAVNTDAQALRKTAVGQTIQIGSGITKGLGAGANPEVGRNAADEDRDALRAALEGADMVFIAAGMGGGTGTGAAPVVAEVAKDLGILTVAVVTKPFNFEGKKRMAFAEQGITELSKHVDSLITIPNDKLLKVLGRGISLLDAFGAANDVLKGAVQGIAELITRPGLMNVDFADVRTVMSEMGYAMMGSGVASGEDRAEEAAEMAISSPLLEDIDLSGARGVLVNITAGFDLRLDEFETVGNTIRAFASDNATVVIGTSLDPDMNDELRVTVVATGIGMDKRPEITLVTNKQVQQPVMDRYQQHGMAPLTQEQKPVAKVVNDNAPQTAKEPDYLDIPAFLRKQAD
notes: full-length FtsZ from Escherichia coli, wild-type protein; also called EcFtsZ; Escherichia coli FtsZ; source: purified as described [54]
[3]
  binding result: binds

B3: nucleotide-devoid, full-length FtsZ from M. jannaschii (natural protein, Methanocaldococcus jannaschii, UniProt Q57816 1-364, looked up)
chain: MKFLKNVLEEGSKLEEFNELELSPEDKELLEYLQQTKAKITVVGCGGAGNNTITRLKMEGIEGAKTVAINTDAQQLIRTKADKKILIGKKLTRGLGAGGNPKIGEEAAKESAEEIKAAIQDSDMVFITCGLGGGTGTGSAPVVAEISKKIGALTVAVVTLPFVMEGKVRMKNAMEGLERLKQHTDTLVVIPNEKLFEIVPNMPLKLAFKVADEVLINAVKGLVELITKDGLINVDFADVKAVMNNGGLAMIGIGESDSEKRAKEAVSMALNSPLLDVDIDGATGALIHVMGPEDLTLEEAREVVATVSSRLDPNATIIWGATIDENLENTVRVLLVITGVQSRIEFTDTGLKRKKLELTGIPKI
notes: full-length FtsZ from Methanocaldococcus jannaschii, nucleotide-devoid; also called apo-MjFtsZ; MjFtsZ; source: prepared as reported [55]
[3]
  binding result: binds
